Results on 27 compounds are retold here after paper PMC9474883, “Novel tricyclic small molecule inhibitors of Nicotinamide N-methyltransferase for the treatment of metabolic disorders” (Scientific Reports, 2022).

Values joined by “and” are separate entries in the source; they are usually repeats but may differ in a detail not shown here. Identical values can stand only once.

The target of test [1] is T1, hNNMT (Homo sapiens, UniProt P40261).
T1 sequence (P40261 1-264): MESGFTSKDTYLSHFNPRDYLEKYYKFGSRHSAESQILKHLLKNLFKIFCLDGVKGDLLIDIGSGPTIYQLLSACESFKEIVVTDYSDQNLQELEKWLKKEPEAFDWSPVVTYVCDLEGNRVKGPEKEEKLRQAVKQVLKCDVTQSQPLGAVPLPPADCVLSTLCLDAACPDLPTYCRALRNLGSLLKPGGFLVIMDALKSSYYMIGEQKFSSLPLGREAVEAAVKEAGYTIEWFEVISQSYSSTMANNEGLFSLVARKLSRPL
As to the kind of experiment: Fluorescence based NNMT enzymatic assay (human). It counts as biochemical. As to conditions: recombinant human NNMT, fluorescence of an MNA derivative; for IC50: read-out: hNNMT IC50. How it is done: (§1) NNMT activity was measured by a fluorescence based assay as previously described. Briefly, Inhibitors were screened using human, mouse and monkey NNMT enzymes at different concentrations. The final assay reaction mixture contained a buffer of 100 mM Tris Hcl pH 7.5, 0.04% BSA, 2 mM Dithiothreitol and 1% DMSO. A fluorescent product 2, 7- naphthyridine was measured in a Tecan reader with excitation at 375 nm and emission at 430 nm. The IC50 values were determined by fitting the inhibition curves (percent inhibition versus inhibitor concentration) using a four parametric sigmoidal dose response in graph pad prism.

Test [2] addresses T2, mouse NNMT (Mus musculus, UniProt O55239).
T2 sequence (O55239 1-264): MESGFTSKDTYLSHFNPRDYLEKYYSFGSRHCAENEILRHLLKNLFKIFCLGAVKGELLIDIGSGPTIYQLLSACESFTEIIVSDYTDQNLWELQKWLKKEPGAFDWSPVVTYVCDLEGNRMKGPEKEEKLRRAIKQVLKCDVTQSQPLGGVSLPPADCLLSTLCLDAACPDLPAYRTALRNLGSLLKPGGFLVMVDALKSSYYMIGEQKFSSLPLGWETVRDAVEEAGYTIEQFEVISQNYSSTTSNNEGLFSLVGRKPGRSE
As to the kind of experiment: Fluorescence based NNMT enzymatic assay (mouse). The test is classed as biochemical. As to conditions: recombinant mouse NNMT, fluorescence of an MNA derivative; read-out: mNNMT IC50. On the procedure:
as §1

Test [3] has as its target T3, endogenous NNMT in U2OS cells (Homo sapiens, UniProt P40261).
T3 construct: endogenous in cells; host or cells: U2OS (human bone osteosarcoma)
T3 sequence (P40261 1-264): T1 sequence (P40261 1-264)
As to the kind of experiment: Cell based U2OS assay (endogenous NNMT, MNA by LC–MS/MS). As to conditions: 24 h treatment; for EC50: read-out: Cell based inhibition in U2OS EC50. On the procedure: (§2) As next steps, cellular assays using the human U2OS cell line were carried out. This assay, described in[6], measures inhibition of endogenous NNMT, without recombinant expression, by quantification of MNA via LC–MS/MS. […] EC50 values were higher by a factor of ~ 30 compared to IC50 values on the isolated recombinant hNNMT, probably reflecting low cell membrane permeability.
The cell based assay with Human bone osteosarcoma (U2OS) cell line was performed using procedures described before (6). Briefly, the cells were seeded into a 96 well cell culture plate followed by incubation for 24 h at 37 °C, 5% CO2, and 95% humidity. Cell culture media was replaced with 100 µl of medium/ inhibitor mixture at different concentrations and incubated for another 24 h. The cells were processed and […] of supernatant was transferred into 96 well plate (Costar 3364) and analyzed by LC–MS/MS. The IC50 values were determined by fitting the inhibition curves (percent inhibition versus inhibitor concentration) using a four parametric sigmoidal dose response graph pad prism.

Test [4] has as its target T1, hNNMT. As to the kind of experiment: Thermal shift assay. As to conditions: for shift in melting temperature (Tm) in presence of SAM / shift in melting temperature (Tm) in presence of SAH: hNNMT; for shift in melting temperature (Tm) in presence of SAM: 5 uM SAM, 10 uM compound; for shift in melting temperature (Tm) in presence of SAH: enzyme:SAH:compound ~ 1:5:10 (1 uM protein, 5 uM SAH, 10 uM compound).
Experimental: Thermal shift assay was performed to assess the binding of tricyclic compounds [(6) = JBSNF-000028, (8) = JBSNF-000107] to hNNMT prior to co-crystallization studies.

In test [5] the test system is NNMT (endogenous MNA levels). As to the kind of experiment: Determination of MNA in cells (Target engagement). The test is classed as cell-based, human. As to conditions: maximal MNA reduction relative to control without compound. On the procedure: as §2
Test [6] deals with NNMT. As to conditions: published NNMT inhibitor; cited from earlier work.

Usually IC50 stands for the concentration needed to halve the response being measured. For the compound `CN1Cc2cccc3c2N(CCO3)C1=N` [Compound (12)], the IC50 in test [1] turned out to be 180 ± 20 nM; in test [2], 380 ± 20 nM.

The EC50 is the concentration giving half of the maximal effect. Consider `CN1Cc2cc(F)cc3c2N(CC3)C1=N` [Compound (8)], for which the IC50 is 38 nM and 39 nM in test [1]; 1100 ± 500 nM in test [2]. For the same compound, the EC50 in test [3] was found to be 1100 ± 200 nM. Also, the “Tm in presence of SAH” value in test [4] (hNNMT 1 uM, SAH 5 uM, compound 10 uM, protein with SAH alone Tm=39°C) is 50 °C. The “Tm in presence of SAM” value in test [4] (hNNMT 1 uM, SAM 5 uM, compound 10 uM, protein with SAM alone Tm=38°C) was determined as 41 °C. Further, the “shift in melting temperature (Tm) in presence of SAM” value in test [4] (listed as JBSFN-107) is “up to 3 °C”; in test [4] (listed as JBSNF-000107), ~ 3 °C. Moreover, the entries for the “shift in melting temperature (Tm) in presence of SAH” value in test [4] (listed as JBSFN-107) and in test [4] (listed as JBSNF-000107) were “up to 11 °C” and ~ 10 °C, respectively. Besides, the “% MNA reduction” value in test [5] was 30%.

Regarding `CN1Cc2cc(F)cc3c2N(CCN3C)C1=N` [Compound (20)], the IC50 in test [1] was > 3000 nM.

As for `CN1Cc2cncc3c2N(CCC3)C1=N` [Compound (4)], the results for the IC50 in test [1] and in test [2] were 360 ± 100 nM and 770 ± 40 nM, respectively.

As to `CN1Cc2c3c(nn2C)CCCN3C1=N` [Compound (25)], the IC50 in test [1] is > 30000 nM.

Take `CN1Cc2cccc3c2N(CCC3)C1=N` [Compound (1)]: the IC50 in test [1] came to 130 ± 80 nM; in test [2], 180 ± 10 nM. For the same compound, in test [3], the “Cell based inhibition in U2OS EC50” value is on record as “active”. Besides, the EC50 in test [3] was found to be 2500 ± 300 nM. The “% MNA reduction” value in test [5] is 30%.

Take `Br.CN1Cc2cc(F)cc3c2N(CCO3)C1=N` [Compound (18)]: the IC50 is 69 ± 36 nM in test [1] and > 3000 nM in test [2]. In test [3], the EC50 was determined as 2500 ± 200 nM. The “% MNA reduction” value in test [5] is on record as 30%.

Turning to `CN1CCc2cccc3c2N(CC3)C1=N` [Compound (27)], the IC50 in test [1] was > 3000 nM.

For the compound `CN1Cc2cccc3c2N(CC3)C1=O` [(7), 2-methyl-1,2,5,6-tetrahydro-3H-pyrrolo[3,2,1-ij]quinazolin-3-one], the “hNNMT IC50” value in test [1] was “inactive”.

In the case of `CN1Cc2cccc3c2N(CCS3)C1=N` [Compound (13)], the concentration for half-maximal inhibition (IC50) was 860 ± 60 nM in test [1] and 200 ± 20 nM in test [2]. Further, the EC50 in test [3] was > 10000 nM. In test [5], the “% MNA reduction” value was found to be 40%.

For `CCn1c(=N)n2c3c(cccc31)CCC2` [B], the IC50 in test [1] was 180 nM.

Regarding `CN1Cc2nn(C)c3c2N(CCC3)C1=N` [Compound (26)], the IC50 in test [1] is > 30000 nM.

As to `N=c1sc2cccc3c2n1CCC3` [A], the IC50 in test [1] was determined as 1600 nM.

Regarding `CN1Cc2cccc3c2N(CCCC3)C1=N` [Compound (5)], the IC50 in test [1] was > 30000 nM.

Take `CN1Cc2cccc3ccn(c23)C1=N` [Compound (23)]: in test [1], the IC50 is > 30000 nM.

Turning to `CN1Cc2cccc3cccc(c23)C1=N` [(24)], the half-inhibitory concentration (IC50) in test [1] was > 10000 nM.

Consider `CN1Cc2cccc3c2N(CCN3C#N)C1=N` [Compound (14)], for which the IC50 was 250 ± 70 nM in test [1] and 720 ± 70 nM in test [2].

On to `CNc1ccc(C(N)=O)cn1` [Compound 28, 6-methylaminonicotinamide], for which the IC50 in test [6] was 590 nM.

As to `CN1Cc2c(F)c(F)cc3c2N(CCC3)C1=N` [Compound (3)], the IC50 in test [1] was 200 nM and 190 nM; in test [2] it was 1200 ± 750 nM. Moreover, the EC50 in test [3] is > 3000 nM. Besides, in test [5], the “% MNA reduction” value was 14%.

For `CN1Cc2ccc(F)c3c2N(CC3)C1=N` [Compound (11)], the IC50 in test [1] is > 1000 nM.

As to `CN1Cc2cccc3c2N(CCN3C)C1=N` [Compound (16)], the IC50 in test [1] is > 30000 nM.

In the case of `Br.CN1Cc2c(F)c(F)cc3c2N(CC3)C1=N` [Compound (9), 8,9-difluoro-2-methyl-1,2,5,6-tetrahydro-3H-pyrrolo[3,2,1-ij]quinazolin-3-imine hydrobromide], the values for the half-maximal inhibitory concentration (IC50) in test [1] and in test [2] were 490 ± 40 nM and > 3000 nM, respectively. In addition, the EC50 in test [3] is > 3000 nM. In test [5], the “% MNA reduction” value turned out to be 43%.

As for `Br.N=C1N(CC(F)(F)F)Cc2cc(F)cc3c2N1CCO3` [Compound (21)], in test [1], the “hNNMT IC50” value is “inactive” and the IC50 was > 30000 nM.

For the compound `Br.N=C1N(CCCc2ccccc2F)Cc2cccc3c2N1CCO3` [Compound (22)], in test [1], the “hNNMT IC50” value is “inactive” and the IC50 is > 30000 nM.

In the case of `CN1Cc2cc(F)cc3c2N(CCC3)C1=N` [Compound (2)], the IC50 in test [1] was 59 ± 4 nM. Besides, in test [3], the “Cell based inhibition in U2OS EC50” value is given as “active” and the EC50 stood at 2200 ± 100 nM. Besides, the IC50 in test [2] is 330 ± 130 nM. Also, the “% MNA reduction” value in test [5] is listed as 21%.

For the compound `CN(C)C(=O)N1CCN2C(=N)N(C)Cc3cccc1c32` [Compound (17)], the IC50 in test [1] was > 30000 nM.

As to `CC(=O)N1CCN2C(=N)N(C)Cc3cccc1c32` [Compound (15)], in test [1], the IC50 is > 30000 nM.
